Where a SMILES comes first, the peptide text is derived from it. Bridges are numbered along the chain shown (N, C = ends).
How the values were obtained:
Format in all cases: cell-based, human
HaCaT cells [1] = assay: Cytotoxicity evaluation (CCK8 cell viability) in epidermal keratinocytes; settings: 5 μM or 10 μM, 48 hours, FBS-free medium
Method: (§1) The cytotoxicities of Regentide-012 and Regentide-013 prepared in Example 1 above were evaluated. Specifically, cytotoxicities were measured in HaCaT cells, which are human epidermal keratinocytes, and CCD-986Sk, which is human fibroblasts. Keratinocytes were dispensed at 3×10^3 cells/well and fibroblasts were dispensed at 5×10^3 cells/well in a 96-well plate, and then cultured in cell culture conditions for 24 hours in a medium containing 10% FBS. After culturing, Regentide-012 and Regentide-013 were added to an FBS-free medium in an amount of 5 μM or 10 μM, and these were cultured for 48 hours. Thereafter, 10 μl per well of CCK8 reaction solution (Dojindo Molecular Technologies, Kumamoto, Japan) was treated and reacted for 4 hours, and then absorbance was measured at 450 nm. The average absorbance value for each sample group was obtained, and the cell viability was evaluated by comparing it with the absorbance values of cells that had not been treated with Regentide-012 and Regentide-013 as a control group.

CCD-986Sk [2] = assay: Cytotoxicity evaluation (CCK8 cell viability) in fibroblasts; settings: 5 μM or 10 μM, 48 hours, FBS-free medium
Method: as §1

HaCaT cells [3] = assay: Epidermal keratinocyte growth promoting efficacy (cell number); settings: 0.5 μM, after 8 days
Method: (§2) In order to confirm the cell proliferation abilities of Regentide-012 and Regentide-013, HaCaT cells, which are epidermal keratinocytes, were dispensed at 1×10^4 cells/well in a 6-well plate, and then cultured for 6 hours in a medium containing 10% FBS. Thereafter, Regentide-012 and Regentide-013 were added at various concentrations (0, 0.1, 0.2, or 0.5 μM) and cultured for 8 days. The medium was replaced with a medium containing Regentide-012 and Regentide-013 in various concentrations every day, and the number of cells was measured at intervals of two days.

CCD986Sk cells = assay: Fibroblast growth promoting efficacy (cell number); settings: 0.5 μM, after 8 days
Method: as §2, with “CCD986Sk” for “HaCaT”, “fibroblasts,” for “epidermal keratinocytes,”

HaCaT cells [4] = assay: Wound recovery effect of epidermal keratinocytes (insert gap migration); settings: 1 and 2.5 μM, FBS-free medium, 16 and 40 hours
Method: (§3) In order to confirm the wound recovery effects of Regentide-012 and Regentide-013, HaCaT cells, which are epidermal keratinocytes, were attached to a 6-well plate with an adhesive insert (Insert, Ibidi, Wisconsin, USA). The cells were dispensed at 6×10^4 cells/well in each well of the insert, and then cultured in cell culture conditions for 24 hours in a medium containing 2% FBS. Thereafter, the insert was removed and washed once using 1×DPBS. Regentide-012 and Regentide-013 were added to the medium at various concentrations (0, 1, and 2.5 μM) in an FBS-free medium, and cell images were photographed at 100 times using a microscope (Nikon Eclipse E100, Tokyo, Japan) after 16 and 40 hours.

CCD-986Sk [5] = assay: Wound recovery effect of fibroblasts (insert gap migration); settings: 1 and 2.5 μM, FBS-free medium, 16 and 40 hours
Method: as §3, with “CCD-986sk, which is dermal” for “HaCaT”, “was” for “which are epidermal keratinocytes, were”, “[…] was” for “Regentide-012 and Regentide-013 were”, “measured” for “photographed”

SMILES	cytotoxicity to epidermal keratinocytes (HaCaT cells [1])	cytotoxicity to fibroblasts (CCD-986Sk [2])	cell growth rate higher than the control group (HaCaT cells [3]) [%]	cell growth rate higher than the control group (CCD986Sk cells) [%]	cell numbers and cell migration abilities of epidermal keratinocytes (HaCaT cells [4])	cell numbers and cell migration abilities of fibroblasts (CCD-986Sk [5])
CC[C@H](C)[C@H](NC(=O)[C@H](CCC(N)=O)NC(=O)[C@H](CCC(=O)O)NC(=O)[C@@H](N)CCCCN)C(=O)NCC(=O)N[C@@H](CCCCN)C(=O)N[C@H]1CSSC[C@@H](C(=O)N[C@@H](CCCNC(=N)N)C(=O)N[C@@H](CCCNC(=N)N)C(=O)N[C@@H](CCCCN)C(=O)N[C@@H](CCCCN)C(=O)O)NC(=O)[C@H](Cc2c[nH]c3ccccc23)NC(=O)[C@H](CCCCN)NC(=O)[C@H](CCCNC(=N)N)NC(=O)CNC(=O)[C@H](CCCNC(=N)N)NC(=O)[C@H]([C@@H](C)O)NC(=O)[C@H](CO)NC1=O [Regentide-012, KEQIGKCSTRGRKWCRRKK] (H-KEQIGKCSTRGRKWCRRKK-OH; disulfide 7-15)	not toxic	not toxic	–	–	–	–
CC[C@H](C)[C@H](NC(=O)[C@H](CCC(N)=O)NC(=O)[C@H](CCC(=O)O)NC(=O)[C@H](CCCCN)NC(C)=O)C(=O)NCC(=O)N[C@@H](CCCCN)C(=O)N[C@H]1CSSC[C@@H](C(=O)N[C@@H](CCCNC(=N)N)C(=O)N[C@@H](CCCNC(=N)N)C(=O)N[C@@H](CCCCN)C(=O)N[C@@H](CCCCN)C(N)=O)NC(=O)[C@H](Cc2c[nH]c3ccccc23)NC(=O)[C@H](CCCCN)NC(=O)[C@H](CCCNC(=N)N)NC(=O)CNC(=O)[C@H](CCCNC(=N)N)NC(=O)[C@H]([C@@H](C)O)NC(=O)[C@H](CO)NC1=O [Regentide-013, Ac-KEQIGKCSTRGRKWCRRKK-NH2] (Ac-KEQIGKCSTRGRKWCRRKK-NH2; disulfide 7-15)	not toxic	not toxic	60.8	43.9	increased the cell numbers and cell migration abilities	increased the cell numbers and cell migration abilities

Source: patent publication US12552835B2, “Composition comprising Regentide-012 or Regentide-013 for improving skin condition” (NINEBIOPHARM CO., LTD., priority 2020, dated 2026)
